{"source": "patent US4892885A", "about": "“Esters of (triarylphosphoranylidene)carbamic acid for effecting diuresis” (American Cyanamid Company, priority 1988, dated 1990)", "key": {"[1]": {"test_system": "Spontaneously Hypertensive Rats", "experiment": "Diuretic activity in spontaneously hypertensive rats (0-5 hour urine)", "format": "in vivo, Male spontaneously hypertensive rats (SHR) of Okamoto strain", "details": "100 mg/kg by gavage, sodium chloride loading, SHR", "protocol": "The diuretic activity of the compounds of this invention was also determined according to the method of Chan, P. S. and Poorvin, D., \"Sequential method for combined screening antihypertensive and diuretic agents in the same spontaneously hypertensive rat.\" Clinical and Experimental Hypertension, 1(6), 817-830 (1979). Male spontaneously hypertensive rats (SHR) of Okamoto strain, 16 weeks old, Taconic Farms Inc. were used in the test. These rats were kept on Purina laboratory chow and tap water ad libitum for 8 weeks before use. One male adult rat (about 300 g) was dosed by gavage with a test compound at 100 mg/kg together with 0.9 sodium chloride loading at […] at zero hour. The tese compound was suspended in 3% preboiled starch at 50 mg/ml. The rat was put in a metabolism cage. The 0-5 hour urine was collected and urinary sodium and potassium were determined using a Beckman Astra 4."}, "plasma renin activity": {"test_system": "plasma renin activity", "experiment": "Inhibition of evoked (drug-induced) increase of plasma renin activity (PRA) in conscious rats", "format": "in vivo", "details": "25 mg/kg oral, 30 minutes prior to hydrochlorothiazide (10 mg/kg) + ACE inhibitor (1 mg/kg) provocative treatment; male Wistar rats; number of rats in parentheses", "protocol": "Inhibition of evoked increase of plasma renin activity was determined by the following test.\nCompounds were tested for their ability to prevent drug-induced elevation of plasma renin activity (PRA) in conscious, male Wistar rats (180-200 g, Charles River Lab.). PRA elevation was induced by a combined oral provocative treatment (C) of hydrochlorothiazide (10 mg/kg) and 1-(3-benzoyl-3-mercapto-2-methylpropionyl)-L-proline, acetate (U.S. Pat. No. 4,226,775) (one mg/kg), prepared by compounding in a mortar and pestle with preboiled 3% starch suspension. This treatment provided the daily maximum PRA. The daily minimum PRA was obtained from rats given oral starch suspension (S) alone. The magnitude of drug effect on PRA elevation was ascertained from rats pretreated orally with test agent (D), at the indicated doeses, 30 minutes prior to administration of provocative treatment (C). The test agent was also compounded in preboiled 3% starch suspension. The dose volumes for both pretreatment and provocative treatment were 2 ml/kg. One hour after provocative treatment the rats were sacrificed by decapitation and the first 3 seconds of blood collected in two chilled vacutainer tubes containing […] of 150 mg/ml tripotassium EDTA. […]\nPRA is calculated as follows: PRA ([…])=PRA 37° C.-PRA 4° C.\nPercent inhibition of PRA elevation is calculated as follows: [formula]"}}, "data": [{"smiles": "CCOC(=O)N=P(c1ccccc1)(c1ccccc1)c1ccccc1CN1CCCCC1", "note": "[[Diphenyl[2-(1-piperidinylmethyl)phenyl]phosphoranylidene]carbamic acid, ethyl ester]", "values": [{"measurement": "Potassium (urinary)", "setting": "[1]", "value": 0.37, "unit": "MEQ/5 Hours"}, {"measurement": "Sodium (urinary)", "setting": "[1]", "value": 1.92, "unit": "MEQ/5 Hours"}, {"measurement": "Volume (urine)", "setting": "[1]", "value": 18.8, "unit": "mL"}]}, {"smiles": "CCOC(=O)N=P(c1ccccc1)(c1ccccc1)c1ccccc1CN1CCCC1", "note": "[[Diphenyl[2-(1-pyrrolidinylmethyl)phenyl]phosphoranylidene]carbamic acid, ethyl ester]", "values": [{"measurement": "Potassium (urinary)", "setting": "[1]", "value": 0.56, "unit": "MEQ/5 Hours"}, {"measurement": "Sodium (urinary)", "setting": "[1]", "value": 1.36, "unit": "MEQ/5 Hours"}, {"measurement": "Volume (urine)", "setting": "[1]", "value": 12.0, "unit": "mL"}]}, {"smiles": "CCOC(=O)N=P(c1ccccc1)(c1ccccc1)c1ccccc1CN(C)C", "note": "[[[2-[(Dimethylamino)methyl]phenyl]diphenylphosphoranylidene]carbamic acid, ethyl ester]", "values": [{"measurement": "Percent Inhibition of Plasma Renin Elevation, Average % Inhibition (No. of rats)", "setting": "plasma renin activity", "value": 16, "unit": "%"}, {"measurement": "Potassium (urinary)", "setting": "[1]", "value": 0.67, "unit": "MEQ/5 Hours"}, {"measurement": "Sodium (urinary)", "setting": "[1]", "value": 1.47, "unit": "MEQ/5 Hours"}, {"measurement": "Volume (urine)", "setting": "[1]", "value": 15.5, "unit": "mL"}]}, {"smiles": "COC(=O)N=P(c1ccccc1)(c1ccccc1)c1ccccc1CN(C)C", "note": "[[[2-[(Dimethylamino)methyl]phenyl]diphenylphosphoranylidene]carbamic acid, methyl ester]", "values": [{"measurement": "Percent Inhibition of Plasma Renin Elevation, Average % Inhibition (No. of rats)", "setting": "plasma renin activity", "value": 77, "unit": "%"}, {"measurement": "Potassium (urinary)", "setting": "[1]", "value": 0.83, "unit": "MEQ/5 Hours"}, {"measurement": "Sodium (urinary)", "setting": "[1]", "value": 1.62, "unit": "MEQ/5 Hours"}, {"measurement": "Volume (urine)", "setting": "[1]", "value": 19.5, "unit": "mL"}]}, {"smiles": "CCCN(CCC)Cc1ccccc1P(=NC(=O)OCC)(c1ccccc1)c1ccccc1", "note": "[[[2-[(Dipropylamino)methyl]phenyl]diphenylphosphoranylidene]carbamic acid, ethyl ester]", "values": [{"measurement": "Potassium (urinary)", "setting": "[1]", "value": 0.40, "unit": "MEQ/5 Hours"}, {"measurement": "Sodium (urinary)", "setting": "[1]", "value": 1.41, "unit": "MEQ/5 Hours"}, {"measurement": "Volume (urine)", "setting": "[1]", "value": 22.0, "unit": "mL"}]}, {"smiles": "CCOC(=O)N=P(c1ccccc1)(c1ccccc1)c1ccccc1CNC.Cl", "note": "[[[2-[(Methylamino)methyl]phenyl]diphenylphosphoranylidene]carbamic acid, ethyl ester, monohydrochloride]", "values": [{"measurement": "Potassium (urinary)", "setting": "[1]", "value": 0.51, "unit": "MEQ/5 Hours"}, {"measurement": "Sodium (urinary)", "setting": "[1]", "value": 1.66, "unit": "MEQ/5 Hours"}, {"measurement": "Volume (urine)", "setting": "[1]", "value": 17.5, "unit": "mL"}]}, {"smiles": "CCOC(=O)N=P(c1ccccc1)(c1ccccc1)c1ccccc1CN(CC)CC", "note": "[[[[2-(Diethylamino)methyl]phenyl]diphenylphosphoranylidene]carbamic acid, ethyl ester]", "values": [{"measurement": "Potassium (urinary)", "setting": "[1]", "value": 0.48, "unit": "MEQ/5 Hours"}, {"measurement": "Sodium (urinary)", "setting": "[1]", "value": 2.46, "unit": "MEQ/5 Hours"}, {"measurement": "Volume (urine)", "setting": "[1]", "value": 23.3, "unit": "mL"}]}]}
